# In patent US20120225118A1, “COMPOSITIONS FOR DELIVERY OF INSOLUBLE AGENTS” (Latitude Pharmaceuticals Incorporated, priority 2009, published 2012):
# Read-outs that look alike come from different tables or passages of the source.
# How the values were obtained:
# [1] = 25° C., cited from earlier work
# [2] = Solubility in aqueous 0.2% SDS; assay type: physicochemical; details: 37 °C, aqueous with cosolvent or surfactant or cyclodextrin, thermodynamic from solid
# Method: About 5.5 mg itraconazole or an amount of the preparations obtained according to Example 3 containing 5.5 mg itraconazole was placed in 500 mL aqueous solution of 0.2% SDS. The mixture was stirred at 37° C. for 24 hours. About 5 mL of the solution was taken and filtered through a 0.45 μm filter. The filtrate was analyzed by HPLC for concentration of itraconazole.
solubility at 24 h [2] [µg/mL],Structure (SMILES),volume of solvent required to dissolve 1 gram ([1]; ethanol) [mL],volume of solvent required to dissolve 1 gram ([1]; water) [mL]
,CC(=O)Oc1ccccc1C(=O)O [aspirin],5,300
6.44 ± 0.08,CCC(C)n1ncn(-c2ccc(N3CCN(c4ccc(OCC5COC(Cn6cncn6)(c6ccc(Cl)cc6Cl)O5)cc4)CC3)cc2)c1=O (stereo not drawn) [itraconazole],,
